Here are results for 13 compounds from ChEMBL document CHEMBL4616724, “Topoisomerase Inhibitors Addressing Fluoroquinolone Resistance in Gram-Negative Bacteria” (J Med Chem, 2020).

pIC50: −log10 of the molar value. In brackets after ≈: the same amount, converted by molar mass.

Data set [1] relates to Escherichia coli. Description: Antibacterial activity against wild type Escherichia coli ATCC 25922 at pH 7.4 by CLSI-based broth microdilution assay. Type of data set: functional.
In data set [2] the test system is Pseudomonas aeruginosa. Nature of the data set: Antibacterial activity against Pseudomonas aeruginosa K1542/K767 harboring MexB/MexXY deletion mutant by CLSI-based broth microdilution assay. Type of data set: functional.
For data set [3], the system named is Pseudomonas aeruginosa. Description: Antibacterial activity against Pseudomonas aeruginosa NB52023 harboring gyrA T83I mutant/ParC S87L mutant by CLSI-based broth microdilution assay. Type of data set: functional.
Data set [4] has as its system Escherichia coli. Description: Antibacterial activity against Escherichia coli BW25113/JW0451-2 harboring AcrB deletion mutant by CLSI-based broth microdilution assay. Type of data set: functional.
For data set [5], the system named is Pseudomonas aeruginosa. Description: Antibacterial activity against wild type Pseudomonas aeruginosa PAO1 K767 by CLSI-based broth microdilution assay. Type of data set: functional.
In another data set the test system is Klebsiella pneumoniae. Description: Antibacterial activity against wild type Klebsiella pneumoniae ATCC 43816 by CLSI-based broth microdilution assay. Type of data set: functional.
A short description of data set [6]: Inhibition of recombinant full-length C-terminal His6-tagged Escherichia coli DNA topoisomerase 4 subunit ParC/ParE using kinetoplast DNA as substrate preincubated for 30 mins followed by substrate addition and measured after 1 hr in presence of ATP by size exclusion chromatography.
A short description of data set [7]: Photoirradiation factor, ratio of IC50 for BALB/c mouse 3T3 cells under dark condition to IC50 for BALB/c mouse 3T3 cells under 5 J/cm2 sunlight irradiation by neutral red uptake assay. The note with it: BALB/c 3T3 cells, read-out: Ratio IC50. Type of data set: ADME, cell-based, NIH3T3.

In the case of `Cc1c(N2CCNCC2)c(F)cc2c(CN)cc(=O)n(C3CC3)c12`, the MIC in the data set with Escherichia coli [1] is 0.25 to 4 µg/mL (≈ 0.757 to 12.1 µM); against Pseudomonas aeruginosa [2] it was 0.5 to 1 µg/mL (≈ 1.51 to 3.03 µM); in the data set on Pseudomonas aeruginosa [3] it was 1 to 2 µg/mL (≈ 3.03 to 6.05 µM); in the data set with Escherichia coli [4] it was 0.06 to 1 µg/mL (≈ 0.182 to 3.03 µM); in the data set with Pseudomonas aeruginosa [5], 4 to 8 µg/mL (≈ 12.1 to 24.2 µM); with Klebsiella pneumoniae, 0.5 to 2 µg/mL (≈ 1.51 to 6.05 µM).
For the compound `Cc1c(N2CC[C@@H]([C@H](C)N)C2)c(F)cc2c(-c3n[nH]c(=O)o3)cc(=O)n(C3CC3)c12`, the MIC was 8 µg/mL (≈ 19.3 µM) in the data set on Escherichia coli [1]; 8 µg/mL (≈ 19.3 µM) in the data set with Pseudomonas aeruginosa [2]; 32 µg/mL (≈ 77.4 µM) in the data set on Pseudomonas aeruginosa [3]; over 32 µg/mL against Pseudomonas aeruginosa [5]; 32 µg/mL (≈ 77.4 µM) against Klebsiella pneumoniae.
As to `Cc1c(N2CC3CC3(CN)C2)c(F)cc2c(CN)cc(=O)n(C3CC3)c12` (racemic), the MIC came out at 8 µg/mL (≈ 22.4 µM) in the data set with Escherichia coli [1]; 4 µg/mL (≈ 11.2 µM) with Pseudomonas aeruginosa [2]; 16 µg/mL (≈ 44.9 µM) against Pseudomonas aeruginosa [3]; 1 µg/mL (≈ 2.81 µM) in the data set with Escherichia coli [4]; 32 µg/mL (≈ 89.8 µM) against Pseudomonas aeruginosa [5]; 32 µg/mL (≈ 89.8 µM) with Klebsiella pneumoniae.
Turning to `Cc1c(N2CCCC2)c(F)cc2c(CN)cc(=O)n(C3CC3)c12`, the MIC with Escherichia coli [1] is 1 µg/mL (≈ 3.17 µM); with Pseudomonas aeruginosa [2] it was 4 µg/mL (≈ 12.7 µM); against Pseudomonas aeruginosa [3] it was 8 µg/mL (≈ 25.4 µM); with Escherichia coli [4], 0.06 µg/mL (≈ 0.19 µM); against Pseudomonas aeruginosa [5], 32 µg/mL (≈ 101 µM); against Klebsiella pneumoniae it was 2 µg/mL (≈ 6.34 µM).
With `Cc1c(N2C[C@@]3(C)C[C@@]3(N)C2)c(F)cc2c(CN)cc(=O)n(C3CC3)c12` (racemic), the MIC was 0.125 µg/mL (≈ 0.351 µM) against Escherichia coli [1]; 1 µg/mL (≈ 2.81 µM) against Pseudomonas aeruginosa [2]; 2 µg/mL (≈ 5.61 µM) in the data set on Pseudomonas aeruginosa [3]; at most 0.03 µg/mL with Escherichia coli [4]; 4 µg/mL (≈ 11.2 µM) in the data set with Pseudomonas aeruginosa [5]; 0.25 µg/mL (≈ 0.701 µM) with Klebsiella pneumoniae.
For the compound `Cc1c(N2C[C@H]3CC[C@@]3(N)C2)c(F)cc2c(CN)cc(=O)n(C3CC3)c12` (racemic), the MIC stood at 2 µg/mL (≈ 5.61 µM) in the data set on Escherichia coli [1]; 2 µg/mL (≈ 5.61 µM) against Pseudomonas aeruginosa [2]; 4 µg/mL (≈ 11.2 µM) with Pseudomonas aeruginosa [3]; 0.25 µg/mL (≈ 0.701 µM) against Escherichia coli [4]; 8 µg/mL (≈ 22.4 µM) in the data set on Pseudomonas aeruginosa [5]; 4 µg/mL (≈ 11.2 µM) in the data set with Klebsiella pneumoniae.
`Cc1c(N2CC[C@@H]([C@H](C)N)C2)c(F)cc2c(=O)n(N)c(=O)n(C3CC3)c12`: the MIC against Escherichia coli [1] was found to be 1 µg/mL (≈ 2.77 µM); against Pseudomonas aeruginosa [2], 1 µg/mL (≈ 2.77 µM); in the data set on Pseudomonas aeruginosa [3], 2 µg/mL (≈ 5.53 µM); against Pseudomonas aeruginosa [5], 4 µg/mL (≈ 11.1 µM); in the data set with Klebsiella pneumoniae it was 2 µg/mL (≈ 5.53 µM). Besides, the pIC50 in data set [6] was 6.66.
For `Cc1c(N2CC[C@@H]([C@H](C)N)C2)c(F)cc2c(CO)cc(=O)n(C3CC3)c12`, the MIC against Escherichia coli [1] stood at 16 µg/mL (≈ 44.5 µM); with Pseudomonas aeruginosa [2], 4 µg/mL (≈ 11.1 µM); against Pseudomonas aeruginosa [3], 8 µg/mL (≈ 22.3 µM); in the data set on Escherichia coli [4], 0.25 µg/mL (≈ 0.696 µM); in the data set on Pseudomonas aeruginosa [5] it was 16 µg/mL (≈ 44.5 µM); with Klebsiella pneumoniae, 32 µg/mL (≈ 89 µM).
Turning to `N#Cc1c(N2CC3CC3(N)C2)c(F)cc2c(CN)cc(=O)n(C3CC3)c12` (configuration not stated), the minimum inhibitory concentration (MIC) against Escherichia coli [1] is 1 µg/mL (≈ 2.83 µM); against Pseudomonas aeruginosa [2], 2 µg/mL (≈ 5.66 µM); against Pseudomonas aeruginosa [3], 4 µg/mL (≈ 11.3 µM); in the data set on Escherichia coli [4], 0.125 µg/mL (≈ 0.354 µM); in the data set with Pseudomonas aeruginosa [5], 16 µg/mL (≈ 45.3 µM); in the data set with Klebsiella pneumoniae it was 2 µg/mL (≈ 5.66 µM).
Take `C[C@@H]1CN(c2c(F)c(N)c3c(=O)c(C(=O)O)cn(C4CC4)c3c2F)C[C@H](C)N1` [SPARFLOXACIN]: in data set [7], the selectivity ratio is over 82.
Take `Cc1c(N2CC[C@@H](N)C2)c(F)cc2c(CN)cc(=O)n(C3CC3)c12`: the MIC with Escherichia coli [1] is 16 µg/mL (≈ 48.4 µM); against Pseudomonas aeruginosa [2] it was 8 µg/mL (≈ 24.2 µM); against Pseudomonas aeruginosa [3], 32 µg/mL (≈ 96.9 µM); with Escherichia coli [4] it was 2 µg/mL (≈ 6.05 µM); with Pseudomonas aeruginosa [5] it was over 32 µg/mL; in the data set on Klebsiella pneumoniae, 8 µg/mL (≈ 24.2 µM).
Turning to `Cc1c(N2CC3CC3(N)C2)c(F)cc2c(CN)c(Cl)c(=O)n(C3CC3)c12` (configuration not stated), the minimal inhibitory concentration (MIC) is 0.25 µg/mL (≈ 0.663 µM) in the data set with Escherichia coli [1]; 1 µg/mL (≈ 2.65 µM) against Pseudomonas aeruginosa [2]; 2 µg/mL (≈ 5.31 µM) in the data set with Pseudomonas aeruginosa [3]; 0.06 µg/mL (≈ 0.159 µM) against Escherichia coli [4]; 8 µg/mL (≈ 21.2 µM) in the data set on Pseudomonas aeruginosa [5]; 0.5 µg/mL (≈ 1.33 µM) with Klebsiella pneumoniae.
As to `NCc1cc(=O)n(C2CC2)c2cc(N3CC4CC4(N)C3)c(F)cc12` (configuration not stated), the MIC was 1 µg/mL (≈ 3.05 µM) with Escherichia coli [1]; 2 µg/mL (≈ 6.09 µM) against Pseudomonas aeruginosa [2]; 4 µg/mL (≈ 12.2 µM) in the data set on Pseudomonas aeruginosa [3]; 0.5 µg/mL (≈ 1.52 µM) with Escherichia coli [4]; 16 µg/mL (≈ 48.7 µM) against Pseudomonas aeruginosa [5]; 4 µg/mL (≈ 12.2 µM) against Klebsiella pneumoniae.
